Tests used:
Assay type in all cases: in vivo
[1] = system: barnyardgrass (Echinochloa crus-galli); assay: Test A preemergence, barnyardgrass; conditions: Preemergence; for Plant response rating, Barnyardgrass: 0 to 100 scale (0 no effect, 100 complete control); for Barnyardgrass plant response rating: visual injury on 0 to 100 scale (0 no effect, 100 complete control), approximately 10 days
Summary of the method: (§1)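 Pots: loam soil/sand blend. Pre: directed soil spray at planting. Post: plants 2–10 cm, 1–2 leaf stage. Formulation: non-phytotoxic solvent + surfactant.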

[2] = system: Foxtail, Giant (giant foxtail, Setaria faberi); assay: Test A preemergence, Foxtail, Giant; conditions: Preemergence; for Plant response rating, Foxtail, Giant: 0 to 100 scale (0 no effect, 100 complete control); for Foxtail, Giant plant response rating: visual injury on 0 to 100 scale (0 no effect, 100 complete control), approximately 10 days
Summary of the method: as §1

[3] = system: blackgrass (Alopecurus myosuroides); assay: Test A postemergence, blackgrass; conditions: Postemergence, 0 to 100 scale (0 no effect, 100 complete control)
Summary of the method: as §1

[4] = system: pigweed (Amaranthus retroflexus); assay: Test A postemergence, pigweed; conditions: Postemergence
Summary of the method: as §1

[5] = system: Ryegrass, Italian (Italian ryegrass, Lolium multiflorum); assay: Test A preemergence, Ryegrass, Italian; conditions: Preemergence; for Plant response rating, Ryegrass, Italian: 0 to 100 scale (0 no effect, 100 complete control); for Ryegrass, Italian plant response rating: visual injury on 0 to 100 scale (0 no effect, 100 complete control), approximately 10 days
Summary of the method: as §1

[6] = system: barnyardgrass (Echinochloa crus-galli); assay: Test A postemergence, barnyardgrass; conditions: Postemergence, 0 to 100 scale (0 no effect, 100 complete control)
Summary of the method: (§2)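 Test chemicals, formulated in a non-phytotoxic solvent mixture with surfactant, were sprayed postemergence on plants 2 to 10 cm tall at the one- to two-leaf stage. Preemergence treatment was a directed soil spray onto freshly seeded pots. Both used a loam soil and sand blend.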

kochia (Bassia scoparia) [7] = assay: Test A postemergence, kochia; conditions: Postemergence
Summary of the method: as §1

[8] = system: Foxtail, Giant (giant foxtail, Setaria faberi); assay: Test A postemergence, Foxtail, Giant; conditions: Postemergence
Summary of the method: as §1

[9] = system: ragweed (common ragweed, Ambrosia artemisiifolia); assay: Test A preemergence, ragweed; conditions: Preemergence; for Plant response rating, Ragweed: 0 to 100 scale (0 no effect, 100 complete control); for Ragweed plant response rating: visual injury on 0 to 100 scale (0 no effect, 100 complete control), approximately 10 days
Summary of the method: as §1

corn (Zea mays) = assay: Test A postemergence, corn; conditions: Postemergence
Summary of the method: as §1

[10] = system: pigweed (Amaranthus retroflexus); assay: Test A preemergence, pigweed; conditions: for Plant response rating, Pigweed: 0 to 100 scale (0 no effect, 100 complete control); for Pigweed plant response rating: visual injury on 0 to 100 scale (0 no effect, 100 complete control), approximately 10 days
Summary of the method: as §2

[11] = system: Ryegrass, Italian (Italian ryegrass, Lolium multiflorum); assay: Test A postemergence, Ryegrass, Italian; conditions: Postemergence
Summary of the method: as §1

[12] = system: galium (catchweed bedstraw, Galium aparine); assay: Test A postemergence, galium; conditions: Postemergence
Summary of the method: as §2

[13] = system: ragweed (common ragweed, Ambrosia artemisiifolia); assay: Test A postemergence, ragweed; conditions: Postemergence
Summary of the method: as §1

kochia (Bassia scoparia) [14] = assay: Test A preemergence, kochia; conditions: Preemergence; for Plant response rating, Kochia: 0 to 100 scale (0 no effect, 100 complete control); for Kochia plant response rating: visual injury on 0 to 100 scale (0 no effect, 100 complete control), approximately 10 days
Summary of the method: as §1

[15] = system: wheat (Triticum aestivum); assay: Test A postemergence, wheat; conditions: Postemergence
Summary of the method: as §2

[16] = 31 g ai/ha, visual injury, approx. 10 days
[17] = 31 g ai/ha, visual injury on 0 to 100 scale (0 no effect, 100 complete control), approx. 10 days
[18] = 125 g ai/ha, 0 to 100 scale (0 no effect, 100 complete control)
[19] = 125 g ai/ha, visual injury approx. 10 days
[20] = 500 g ai/ha, visual injury vs untreated controls after approx. 10 days
[21] = 125 g ai/ha, visual injury approx. 10 days, 0 to 100 scale (0 no effect, 100 complete control)
[22] = 500 g ai/ha, visual injury vs untreated controls after approx. 10 days, 0 to 100 scale (0 no effect, 100 complete control)
[23] = 125 g ai/ha, visual injury, approx. 10 days
[24] = 500 g ai/ha, visual injury approx. 10 days
[25] = 500 g ai/ha, visual injury approx. 10 days, 0 to 100 scale (0 no effect, 100 complete control)

With `Cc1cc(C)c(N(COC(=O)C2CCCCC2)S(=O)(=O)C(F)(F)F)cc1C1=NOC2(CCCC2)C1` [Compound 148] the “Plant response rating, Barnyardgrass” value [1, 16] was 20, the “Barnyardgrass plant response rating” value ([1]; 125 g ai/ha) was 80 and the “Plant response rating, Foxtail, Giant” value [2, 16] was 40. The “Foxtail, Giant plant response rating” value ([2]; 125 g ai/ha) was 100, the “Plant response rating, Blackgrass” value ([3]; 31 g ai/ha) was 0 and the “Plant response rating, Blackgrass” value ([3]; 125 g ai/ha) was 0. The “Plant response rating, Pigweed” value [4, 17] was 40, the “Plant response rating, Pigweed” value [4, 18] was 40 and the “Plant response rating, Ryegrass, Italian” value [5, 16] was 30. The “Ryegrass, Italian plant response rating” value ([5]; 125 g ai/ha) was 100, the “Plant response rating, Barnyardgrass” value ([6]; 31 g ai/ha) was 0 and the “Plant response rating, Barnyardgrass” value ([6]; 125 g ai/ha) was 10. For the same compound, the “Plant response rating, Kochia” value (kochia (Bassia scoparia) [7]; [17]) was 0, the “Plant response rating, Kochia” value (kochia (Bassia scoparia) [7]; [18]) was 20 and the “Plant response rating, Foxtail, Giant” value [8, 17] was 0. For the same compound, the “Plant response rating, Foxtail, Giant” value [8, 18] was 0, the “Plant response rating, Ragweed” value [9, 16] was 0 and the “Ragweed plant response rating” value ([9]; 125 g ai/ha) was 20. For the same compound, the “Plant response rating, Corn” value (corn (Zea mays); [17]) was 0, the “Plant response rating, Corn” value (corn (Zea mays); [18]) was 0 and the “Plant response rating, Pigweed” value [10, 16] was 30. The “Pigweed plant response rating” value ([10]; 125 g ai/ha) was 100, the “Plant response rating, Ryegrass, Italian” value [11, 17] was 0 and the “Plant response rating, Ryegrass, Italian” value [11, 18] was 0. For the same compound, the “Plant response rating, Galium” value [12, 17] was 0, the “Plant response rating, Galium” value [12, 18] was 20 and the “Plant response rating, Ragweed” value [13, 17] was 0. For the same compound, the “Plant response rating, Ragweed” value [13, 18] was 0, the “Plant response rating, Kochia” value (kochia (Bassia scoparia) [14]; [16]) was 20 and the “Kochia plant response rating” value (kochia (Bassia scoparia) [14]; 125 g ai/ha) was 30. For the same compound, the “Plant response rating, Wheat” value [15, 17] was 0 and the “Plant response rating, Wheat” value [15, 18] was 0.
`Cc1ccc(=O)n(-c2cc(NS(=O)(=O)C(F)(F)F)c(C)cc2C)n1` [Compound 85] was tested, and the “Barnyardgrass plant response rating” value ([1]; 125 g ai/ha) was 70, the “Plant response rating, Barnyardgrass” value ([1]; 500 g ai/ha) was 70 and the “Foxtail, Giant plant response rating” value ([2]; 125 g ai/ha) was 10. The “Plant response rating, Foxtail, Giant” value ([2]; 500 g ai/ha) was 90, the “Plant response rating, Blackgrass” value [3, 19] was 0 and the “Blackgrass plant response rating” value [3, 20] was 0. For the same compound, the “Plant response rating, Pigweed” value [4, 21] was 20, the “Pigweed plant response rating” value [4, 22] was 40 and the “Ryegrass, Italian plant response rating” value ([5]; 125 g ai/ha) was 0. The “Plant response rating, Ryegrass, Italian” value ([5]; 500 g ai/ha) was 30, the “Plant response rating, Barnyardgrass” value [6, 19] was 30 and the “Barnyardgrass plant response rating” value [6, 20] was 20. For the same compound, the “Plant response rating, Kochia” value (kochia (Bassia scoparia) [7]; [21]) was 0, the “Kochia plant response rating” value (kochia (Bassia scoparia) [7]; [22]) was 0 and the “Plant response rating, Foxtail, Giant” value [8, 21] was 0. For the same compound, the “Foxtail, Giant plant response rating” value [8, 22] was 0, the “Ragweed plant response rating” value ([9]; 125 g ai/ha) was 0 and the “Plant response rating, Ragweed” value ([9]; 500 g ai/ha) was 0. For the same compound, the “Plant response rating, Corn” value (corn (Zea mays); [21]) was 0, the “Corn plant response rating” value (corn (Zea mays); [22]) was 0 and the “Pigweed plant response rating” value ([10]; 125 g ai/ha) was 100. The “Plant response rating, Pigweed” value ([10]; 500 g ai/ha) was 100, the “Plant response rating, Ryegrass, Italian” value [11, 21] was 40 and the “Ryegrass, Italian plant response rating” value [11, 22] was 30. For the same compound, the “Plant response rating, Galium” value [12, 21] was 60, the “Galium plant response rating” value [12, 22] was 0 and the “Plant response rating, Ragweed” value [13, 21] was 20. For the same compound, the “Ragweed plant response rating” value [13, 22] was 30, the “Kochia plant response rating” value (kochia (Bassia scoparia) [14]; 125 g ai/ha) was 60 and the “Plant response rating, Kochia” value (kochia (Bassia scoparia) [14]; 500 g ai/ha) was 70. The “Plant response rating, Wheat” value [15, 21] was 0 and the “Wheat plant response rating” value [15, 22] was 0.
In the case of `Cc1cc(C)c(C2=NOC3(CCCCCC3)C2)cc1NS(=O)(=O)C(F)(F)F` [Compound 277], the “Plant response rating, Barnyardgrass” value [1, 23] is reported as 100, the “Barnyardgrass plant response rating” value ([1]; 500 g ai/ha) is reported as 100 and the “Plant response rating, Foxtail, Giant” value [2, 23] is reported as 100. For the same compound, the “Foxtail, Giant plant response rating” value ([2]; 500 g ai/ha) was 100, the “Plant response rating, Blackgrass” value ([3]; 125 g ai/ha) was 10 and the “Plant response rating, Blackgrass” value [3, 24] was 60. For the same compound, the “Plant response rating, Pigweed” value [4, 18] was 30, the “Plant response rating, Pigweed” value [4, 25] was 70 and the “Plant response rating, Ryegrass, Italian” value [5, 23] was 100. For the same compound, the “Ryegrass, Italian plant response rating” value ([5]; 500 g ai/ha) was 100, the “Plant response rating, Barnyardgrass” value ([6]; 125 g ai/ha) was 20 and the “Plant response rating, Barnyardgrass” value [6, 24] was 90. The “Plant response rating, Kochia” value (kochia (Bassia scoparia) [7]; [18]) was 10, the “Plant response rating, Kochia” value (kochia (Bassia scoparia) [7]; [25]) was 40 and the “Plant response rating, Foxtail, Giant” value [8, 18] was 30. For the same compound, the “Plant response rating, Foxtail, Giant” value [8, 25] was 90, the “Plant response rating, Ragweed” value [9, 23] was 10 and the “Ragweed plant response rating” value ([9]; 500 g ai/ha) was 80. The “Plant response rating, Corn” value (corn (Zea mays); [18]) was 10, the “Plant response rating, Corn” value (corn (Zea mays); [25]) was 70 and the “Plant response rating, Pigweed” value [10, 23] was 60. For the same compound, the “Pigweed plant response rating” value ([10]; 500 g ai/ha) was 100, the “Plant response rating, Ryegrass, Italian” value [11, 18] was 0 and the “Plant response rating, Ryegrass, Italian” value [11, 25] was 60. The “Plant response rating, Galium” value [12, 18] was 100, the “Plant response rating, Galium” value [12, 25] was 100 and the “Plant response rating, Ragweed” value [13, 18] was 20. For the same compound, the “Plant response rating, Ragweed” value [13, 25] was 60, the “Plant response rating, Kochia” value (kochia (Bassia scoparia) [14]; [23]) was 90 and the “Kochia plant response rating” value (kochia (Bassia scoparia) [14]; 500 g ai/ha) was 100. The “Plant response rating, Wheat” value [15, 18] was 0 and the “Plant response rating, Wheat” value [15, 25] was 70.
